Patent publication US20090030024A1, “THIAZOLES AS FUNGICIDES” (priority 2005, published 2009)

Assay: logP determination by retention times (calibration with alkan-2-ones)
Conditions: * HPLC reversed-phase C18, 40° C., mobile phase 0.1% aqueous formic acid and acetonitrile, linear gradient 10% to 95% acetonitrile

SMILES	logP	chromatographic logP
CC(=O)Nc1ccc(Nc2nccc(-c3sc(N(C)C)nc3C(F)(F)F)n2)cc1 [Example 699, N-[4-({4-[2-(dimethylamine)-4-(trifluoromethyl)-1,3-thiazol-5-yl]pyrimidin-2-yl}amino)phenyl]acetamide]	2.58*	
Cc1nc(C(F)(F)F)c(-c2ccnc(Nc3ccc(N(C)C)c(Cl)c3)n2)s1 [Example 700, 2-chloro-N1,N1-dimethyl-N4-{4-[2-methyl-4-(trifluoromethyl)-1,3-thiazol-5-yl]pyrimidin-2-yl}benzene-1,4-diamine]		2.88
CN(C)c1nc(C(F)(F)F)c(-c2ccnc(Nc3ccc(N(C)C)c(Cl)c3)n2)s1 [Example 701, 2-chloro-N4-{4-[2-(dimethylamine)-4-(trifluoromethyl)-1,3-thiazol-5-yl]pyrimidin-2-yl}-N1,N1-dimethylbenzene-1,4-diamine]	3.46*	
CN(C)c1nc(C(F)(F)F)c(-c2ccnc(Nc3cccc(O)c3)n2)s1 [Example 702, 3-({4-[2-(dimethylamine)-4-(trifluoromethyl)-1,3-thiazol-5-yl]pyrimidin-2-yl}amino)phenol]	2.84*	
Cc1nc(C(F)(F)F)c(-c2ccnc(Nc3ccc4c(c3)OCO4)n2)s1 [Example 703, N-1,3-benzodioxol-5-yl-4-[2-methyl-4-(trifluoromethyl)-1,3-thiazol-5-yl]pyrimidine-2-amine]		3.21
CN(C)c1nc(C(F)(F)F)c(-c2ccnc(Nc3ccc4c(c3)OCO4)n2)s1 [Example 704, N-1,3-benzodioxol-5-yl-4-[2-(dimethylamine)-4-(trifluoromethyl)-1,3-thiazol-5-yl]pyrimidine-2-amine]	3.63*	
Cc1nc(C(F)(F)F)c(-c2ccnc(Nc3ccc(F)c(F)c3)n2)s1 [Example 705, N-(3,4-difluorophenyl)-4-[2-methyl-4-(trifluoromethyl)-1,3-thiazol-5-yl]pyrimidine-2-amine]		3.76
COc1cc(Nc2nccc(-c3sc(C)nc3C(F)(F)F)n2)cc(OC)c1 [Example 706, N-(3,5-dimethoxyphenyl)-4-[2-methyl-4-(trifluoromethyl)-1,3-thiazol-5-yl]pyrimidine-2-amine]		3.41
COc1cc(Nc2nccc(-c3sc(N(C)C)nc3C(F)(F)F)n2)cc(OC)c1 [Example 707, N-(3,5-dimethoxyphenyl)-4-[2-(dimethylamine)-4-(trifluoromethyl)-1,3-thiazol-5-yl]pyrimidine-2-amine]	3.85*	
COc1cc(Nc2nccc(-c3sc(C)nc3C(F)F)n2)cc(OC)c1OC [Example 708, 4-[4-(difluoromethyl)-2-methyl-1,3-thiazol-5-yl]-N-(3,4,5-trimethoxyphenyl)pyrimidine-2-amine]		2.61
CC(=O)c1cccc(Nc2nccc(-c3sc(C)nc3C(F)F)n2)c1 [Example 709, 1-[3-({4-[4-(difluoromethyl)-2-methyl-1,3-thiazol-5-yl]pyrimidin-2-yl}amino)phenyl]ethanone]		2.64
Cc1nc(C(F)F)c(-c2ccnc(Nc3ccccc3)n2)s1 [Example 710, 4-[4-(difluoromethyl)-2-methyl-1,3-thiazol-5-yl]-N-phenylpyrimidine-2-amine]		2.97
CCc1nc(C)c(-c2ccnc(Nc3ccc(C(=O)NCCOC)cc3)n2)s1 [Example 711, 4-{[4-(2-ethyl-4-methyl-1,3-thiazol-5-yl)pyrimidin-2-yl]amino}-N-(2-methoxyethyl)benzamide]		2.09
COC(=O)NCc1cccc(Nc2nccc(-c3sc(SC)nc3C)n2)c1 [Example 712, methyl-[3-({4-[4-methyl-2-(methylthio)-1,3-thiazol-5-yl]pyrimidin-2-yl}amino)benzyl]carbamate]		2.16
COc1cc(Nc2nccc(-c3sc(-c4cccnc4)nc3C)n2)cc(OC)c1OC [Example 713, 4-(4-methyl-2-pyridin-3-yl-1,3-thiazol-5-yl)-N-(3,4,5-trimethoxyphenyl)pyrimidine-2-amine]		2.56
CCc1nc(C)c(-c2ccnc(Nc3cccnc3)n2)s1 [Example 714, 4-(2-ethyl-4-methyl-1,3-thiazol-5-yl)-N-pyridin-3-ylpyrimidine-2-amine]		1.35
Cc1nc(-c2cccnc2)sc1-c1ccnc(Nc2ccccc2)n1 [Example 715, 4-(4-methyl-2-pyridin-3-yl-1,3-thiazol-5-yl)-N-phenylpyrimidine-2-amine]		3.04
Cc1nc(C)c(-c2ccnc(Nc3cccnc3)n2)s1 [Example 716, 4-(2,4-dimethyl-1,3-thiazol-5-yl)-N-pyridin-3-ylpyrimidine-2-amine]		0.98
CCc1nc(C)c(-c2ccnc(Nc3ccc(C(C)=O)cc3)n2)s1 [Example 717, 1-(4-{[4-(2-ethyl-4-methyl-1,3-thiazol-5-yl)pyrimidin-2-yl]amino}phenyl)ethanone]		2.6
CCc1nc(C)c(-c2ccnc(Nc3ccc(C)c(C)c3)n2)s1 [Example 718, N-(3,4-dimethylphenyl)-4-(2-ethyl-4-methyl-1,3-thiazol-5-yl)pyrimidine-2-amine]		3.71
COc1cc(Nc2nccc(-c3sc(NCC4CCCO4)nc3C)n2)cc(OC)c1 (stereo not shown) [Example 719, N-(3,5-dimethoxyphenyl)-4-{4-methyl-2-[(tetrahydrofuran-2-ylmethyl)amino]-1,3-thiazol-5-yl}pyrimidine-2-amine]		2.02
Cc1nc(NCC2CCCO2)sc1-c1ccnc(Nc2ccc(N3CCCC3=O)cc2)n1 (stereo not shown) [Example 720, 1-{4-[(4-{4-methyl-2-[(tetrahydrofuran-2-ylmethyl)amino]-1,3-thiazol-5-yl}pyrimidin-2-yl)amino]phenyl}pyrrolidin-2-one]		1.6
CCc1nc(C)c(-c2ccnc(Nc3ccc(OCC(C)(C)C)nc3)n2)s1 [Example 721, N-[6-(2,2-dimethylpropoxy)pyridin-3-yl]-4-(2-ethyl-4-methyl-1,3-thiazol-5-yl)pyrimidine-2-amine]		4.23
COCCCNc1nc(C)c(-c2ccnc(Nc3ccccc3)n2)s1 [Example 725, 4-{2-[(3-methoxypropyl)amino]-4-methyl-1,3-thiazol-5-yl}-N-phenylpyrimidine-2-amine]		1.81
COCCCNc1nc(C)c(-c2ccnc(Nc3cccc(Cl)c3)n2)s1 [Example 726, N-(3-chlorophenyl)-4-{2-[(3-methoxypropyl)amino]-4-methyl-1,3-thiazol-5-yl}pyrimidine-2-amine]		2.28
COCC(C)Nc1nc(C)c(-c2ccnc(Nc3ccc(N4CCCC4=O)cc3)n2)s1 (stereo not shown) [Example 728, 1-{4-[(4-{2-[(2-methoxy-1-methylethyl)amino]-4-methyl-1,3-thiazol-5-yl}pyrimidin-2-yl)amino]phenyl}pyrrolidin-2-one]		1.64
COCC(C)Nc1nc(C)c(-c2ccnc(Nc3ccc(C(C)=O)cc3)n2)s1 (stereo not shown) [Example 729, 1-{4-[(4-{2-[(2-methoxy-1-methylethyl)amino]-4-methyl-1,3-thiazol-5-yl}pyrimidin-2-yl)amino]phenyl}ethanone]		1.92
Cc1nc(N2CCOCC2)sc1-c1ccnc(Nc2ccccc2)n1 [Example 731, 4-(4-methyl-2-morpholin-4-yl-1,3-thiazol-5-yl)-N-phenylpyrimidine-2-amine]		2.25
